Assay results as given in patent US7691848B2, “Pyrrolobenzodiazepine arylcarboxamides and derivatives thereof as follicle-stimulating hormone receptor antagonists” (Wyeth, priority 2005, dated 2010).

How the values were obtained:
human FSH receptor = target: T1, human FSH receptor (Homo sapiens, UniProt P23945); test: Follicle-Stimulating Hormone Receptor-Dependent Cre-Luciferase Reporter Gene Assay (CHO FSH-R 6CRE-Luc cells); format: cell-based; conditions: for IC50: dose-response format, in presence of EC50 of purified human FSH; for inhibition at 30 µM: 2-dose format, concentration in parentheses 30 μM, inhibition of the response to EC50 of FSH
T1 construct: host or cells: CHO-K1 (CHO FSH-R 6CRE-Luc, 1D7 cells)
T1 sequence (P23945 18-695): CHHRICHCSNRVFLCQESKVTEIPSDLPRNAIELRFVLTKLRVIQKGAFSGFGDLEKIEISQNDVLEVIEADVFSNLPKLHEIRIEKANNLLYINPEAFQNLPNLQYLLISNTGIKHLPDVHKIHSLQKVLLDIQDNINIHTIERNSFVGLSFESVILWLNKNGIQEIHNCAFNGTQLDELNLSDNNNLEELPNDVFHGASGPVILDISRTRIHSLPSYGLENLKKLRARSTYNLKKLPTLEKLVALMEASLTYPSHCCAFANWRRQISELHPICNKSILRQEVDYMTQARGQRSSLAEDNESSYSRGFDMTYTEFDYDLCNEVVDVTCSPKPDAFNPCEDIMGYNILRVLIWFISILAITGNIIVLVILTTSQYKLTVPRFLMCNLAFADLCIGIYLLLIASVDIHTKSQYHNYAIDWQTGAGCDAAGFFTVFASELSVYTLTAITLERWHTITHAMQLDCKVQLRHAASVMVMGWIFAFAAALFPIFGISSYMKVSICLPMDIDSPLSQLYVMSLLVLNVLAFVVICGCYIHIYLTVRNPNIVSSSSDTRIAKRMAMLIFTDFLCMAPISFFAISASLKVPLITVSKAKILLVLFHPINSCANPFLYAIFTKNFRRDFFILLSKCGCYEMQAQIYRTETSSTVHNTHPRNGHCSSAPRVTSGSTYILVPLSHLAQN
Text: Follicle-Stimulating Hormone Receptor-Dependent Cre-Luciferase Reporter Gene Assay for the Identification of Follicle-Stimulating Hormone (FSH) Antagonists
A Chinese hamster ovarian cell line that stably produces the human FSH receptor and a luciferase reporter gene regulated by cAMP response elements was used to identify and determine the relative potencies of human FSH receptor antagonists. See for example, Kelton, C. A., et al. Mol. Cell. Endocrinol. 89:141-151 (1992), Tilly, J. L., et al. Endocrinology 131:799-806(1992), and George, S. E., et al. J. Biomol. Screening 2:235-240 (1997).
Compound Vehicle: Stock compounds were solubilized in an appropriate vehicle, e.g., phosphate buffered saline (PBS) or dimethyl sulfoxide (DMSO), at 30 mM. The compounds were subsequently diluted in DMSO to working dilutions of 1 and 20 or 30 mM for 2-dose testing format and 1 μM-10 mM for dose-response format. The DMSO dilutions were diluted 500-fold in sterile growth medium [D-MEM/F-12 (GIBCO/BRL; Grand Island, NY) containing 15 mM HEPES, 2 mM 1-glutamine, pyridoxine hydrochloride, phenol red and 5% FetalClone® II (HyClone Laboratories, Inc; Logan, Utah), 0.2% DMSO, 100 units penicillin G/ml, and 100 μg streptomycin sulfate/ml (GIBCO/BRL)]. The concentration of the vehicle in each of the compound dilutions was the same.
Positive Controls: Purified human FSH (>98%) was purchased from Cortex Biochem, Inc. (San Leandro, Calif.) and 3-[(2S*,5R*)-5-{[2-(1H-Indol-3-yl)-ethylcarbamoyl]-methyl}-4-oxo-2-(5-phenylethynyl-thiophen-2-yl)-thiazolidin-3-yl]-benzamide (an FSH-R thiazolidinone antagonist) was prepared by processes described by R. A. Scheuerman et al. in U.S. Pat. No. 6,426,357 (Affymax).
The CHO FSH-R 6CRE-Luc cells (1D7 cells) were obtained from Affymax (Palo Alto, Calif.). These Chinese hamster ovary cells (CHO-K1) were engineered genetically to stably express the recombinant human FSH receptor gene and a luciferase reporter gene under the regulation of 6 copies of a cAMP response element. The cells were plated one day prior to treatment into 96-well white opaque plates at a density of 50,000 cells/100 μl/well in growth medium. On the day of treatment, the growth medium was removed from the wells by aspiration and 50 μl of fresh growth medium was added to each well. The cells were incubated at 37° C. in a humidified incubator with 5% CO2/95% air.
The treated cells were incubated for 4 hours at 37° C. in a humidified incubator with 5% CO2/95% air. At the end of the incubation period, luciferase activity was measured by chemiluminescence using a commercially available kit (LucScreen, Tropix, Inc., Bedford, Mass.) according to the manufacturer's specifications, except that Buffer 1 and Buffer 2 were mixed together in equal proportion prior to the addition of 100 μl of the combined reagents to each well. Chemiluminescence was detected using a luminometer (EG & G Berthold Microlumat LB 96 P, Wallac, Gaithersburg, Md.) with chemiluminescence measured for 1 sec/well. Background luminescence was measured for each well prior to the addition of the LucScreen reagent.
In the 96-well 2-dose format, each compound was tested in duplicate at each dose. […] One plate was used to test a maximum of 22 compounds.
The EC50 of purified human FSH alone was tested in triplicate with each test compound. The doses chosen to test each compound were extrapolated from the initial 2-dose screening process. Along with the test compounds, purified human FSH also was tested in a dose response (0.03, 0.1, 0.3, 1, 3, 10, and 30 ng/ml) for a positive control and quality control. One plate was used for 3 test compounds and the FSH positive control.
Luciferase activity is expressed as relative light units/sec/well. Luciferase activity in antagonist was compared to the appropriate negative and positive controls. For 2-dose testing, results are reported as luciferase activity and are expressed as percent inhibition of the response obtained from the EC50 of FSH.

Row | SMILES | IC50 (human FSH receptor) [µM] | melting point [°C] | inhibition at 30 µM (human FSH receptor) [%]
1 | COc1cc(C(=O)N2Cc3ccc(C(=O)NCc4ccc(C)cc4C)n3Cc3ccccc32)ccc1-c1ccccc1C [Example 46, N-(2,4-DIMETHYLBENZYL)-10-[(2-METHOXY-2′-METHYL-1,1′-BIPHENYL-4-YL)CARBONYL]-10,11-DIHYDRO-5H-PYRROLO[2,1-C][1,4]BENZODIAZEPINE-3-CARBOXAMIDE] | – | 161 to 162 | 44
2 | COc1ccc(CCNC(=O)c2ccc3n2Cc2ccccc2N(C(=O)c2ccc(-c4ccccc4C)c(OC)c2)C3)cc1OC [Example 52, N-[2-(3,4-DIMETHOXYPHENYL)ETHYL]-10-[(2-METHOXY-2′-METHYL-1,1′-BIPHENYL-4-YL)CARBONYL]-10,11-DIHYDRO-5H-PYRROLO[2,1-C][1,4]BENZODIAZEPINE-3-CARBOXAMIDE] | > 30 | 150 to 154 | –
3 | COc1cc(C(=O)N2Cc3ccc(C(=O)NCCc4ccc(Cl)cc4)n3Cc3ccccc32)ccc1-c1ccccc1C [Example 53, N-[2-(4-CHLOROPHENYL)ETHYL]-10-[(2-METHOXY-2′-METHYL-1,1′-BIPHENYL-4-YL)CARBONYL]-10,11-DIHYDRO-5H-PYRROLO[2,1-C][1,4]BENZODIAZEPINE-3-CARBOXAMIDE] | > 30 | 195 to 196 | –
4 | COc1cc(C(=O)N2Cc3ccc(C(=O)NCCCc4ccccc4)n3Cc3ccccc32)ccc1-c1ccccc1C [Example 54, 10-[(2-METHOXY-2′-METHYL-1,1′-BIPHENYL-4-YL)CARBONYL]-N-(3-PHENYLPROPYL)-10,11-DIHYDRO-5H-PYRROLO[2,1-C][1,4]BENZODIAZEPINE-3-CARBOXAMIDE] | – | 191 | 46
5 | COc1cc(C(=O)N2Cc3ccc(C(=O)NCc4ccc(N(C)C)cc4)n3Cc3ccccc32)ccc1-c1ccccc1C [Example 57, N-[4-(DIMETHYLAMINO)BENZYL]-10-[(2-METHOXY-2′-METHYL-1,1′-BIPHENYL-4-YL)CARBONYL]-10,11-DIHYDRO-5H-PYRROLO[2,1-C][1,4]BENZODIAZEPINE-3-CARBOXAMIDE] | > 30 | 148 to 150 | –
6 | COc1cc(C(=O)N2Cc3ccc(C(=O)NC(C)c4ccccc4)n3Cc3ccccc32)ccc1-c1ccccc1C (stereo not drawn) [Example 58] | > 30 | 211 | –
7 | COc1cc(C(=O)N2Cc3ccc(C(=O)NCCC(c4ccccc4)c4ccccc4)n3Cc3ccccc32)ccc1-c1ccccc1C [Example 59, N-(3,3-DIPHENYLPROPYL)-10-[(2-METHOXY-2′-METHYL-1,1′-BIPHENYL-4-YL)CARBONYL]-10,11-DIHYDRO-5H-PYRROLO[2,1-C][1,4]BENZODIAZEPINE-3-CARBOXAMIDE] | > 30 | 214 | –
8 | COc1cc(C(=O)N2Cc3ccc(C(=O)NCC(O)c4ccccc4)n3Cc3ccccc32)ccc1-c1ccccc1C (stereo not drawn) [Example 63] | > 30 | 214 to 215 | –
9 | COc1cc(C(=O)N2Cc3ccc(C(=O)NC4Cc5ccccc5C4)n3Cc3ccccc32)ccc1-c1ccccc1C [Example 65, N-(2,3-DIHYDRO-1H-INDEN-2-YL)-10-[(2-METHOXY-2′-METHYL-1,1′-BIPHENYL-4-YL)CARBONYL]-10,11-DIHYDRO-5H-PYRROLO[2,1-C][1,4]BENZODIAZEPINE-3-CARBOXAMIDE] | > 30 | 230 to 231 | –
10 | COc1ccccc1-c1ccc(C(=O)N2Cc3ccc(C(=O)NCCc4ccc(O)cc4)n3Cc3ccccc32)cc1C [Example 66, N-[2-(4-HYDROXYPHENYL)ETHYL]-10-[(2′-METHOXY-2-METHYL-1,1′-BIPHENYL-4-YL)CARBONYL]-10,11-DIHYDRO-5H-PYRROLO[2,1-C][1,4]BENZODIAZEPINE-3-CARBOXAMIDE] | > 30 | 138 to 147 | –
11 | O=C(NCc1ccc2c(c1)OCO2)c1ccc2n1Cc1ccccc1N(C(=O)COc1ccc(Cl)cc1)C2 [Example 69] | – | 168 to 169 | 21
12 | Cc1ccc(CNC(=O)c2ccc3n2Cc2ccccc2N(C(=O)COc2ccc(Cl)cc2)C3)cc1 [Example 70, 10-[(4-CHLOROPHENOXY)ACETYL]-N-(4-METHYLBENZYL)-10,11-DIHYDRO-5H-PYRROLO[2,1-C][1,4]BENZODIAZEPINE-3-CARBOXAMIDE] | – | 174 to 176 | 17

The next lines start with the values.

Row | IC50 (human FSH receptor) [µM] | melting point [°C] | inhibition at 30 µM (human FSH receptor) [%] | SMILES
13 | > 30 | 145 to 149 | – | COc1cc(C(=O)N2Cc3ccc(C(=O)NCc4ccc(OC(F)(F)F)cc4)n3Cc3ccccc32)ccc1-c1ccccc1C [Example 45, 10-[(2-METHOXY-2′-METHYL-1,1′-BIPHENYL-4-YL)CARBONYL]-N-[4-(TRIFLUOROMETHOXY)BENZYL]-10,11-DIHYDRO-5H-PYRROLO[2,1-C][1,4]BENZODIAZEPINE-3-CARBOXAMIDE]
14 | > 30 | 193 to 195 | – | COc1ccc(CCNC(=O)c2ccc3n2Cc2ccccc2N(C(=O)c2ccc(-c4ccccc4C)c(OC)c2)C3)cc1 [Example 47, 10-[(2-METHOXY-2′-METHYL-1,1′-BIPHENYL-4-YL)CARBONYL]-N-[2-(4-METHOXYPHENYL)ETHYL]-10,11-DIHYDRO-5H-PYRROLO[2,1-C][1,4]BENZODIAZEPINE-3-CARBOXAMIDE]
15 | > 30 | 190 to 192 | – | COc1cc(C(=O)N2Cc3ccc(C(=O)NCCc4ccc(C)cc4)n3Cc3ccccc32)ccc1-c1ccccc1C [Example 48]
16 | > 30 | 154 to 159 | – | COc1cc(C(=O)N2Cc3ccc(C(=O)NCCCCc4ccccc4)n3Cc3ccccc32)ccc1-c1ccccc1C [Example 49, 10-[(2-METHOXY-2′-METHYL-1,1′-BIPHENYL-4-YL)CARBONYL]-N-(4-PHENYLBUTYL)-10,11-DIHYDRO-5H-PYRROLO[2,1-C][1,4]BENZODIAZEPINE-3-CARBOXAMIDE]
17 | > 30 | 129 to 132 | – | COc1cc(C(=O)N2Cc3ccc(C(=O)NCC(c4ccccc4)c4ccccc4)n3Cc3ccccc32)ccc1-c1ccccc1C [Example 50]
18 | 13.2 | 206 to 207 | – | O=C(NCCc1ccc(O)cc1)c1ccc2n1Cc1ccccc1N(C(=O)COc1ccc(Cl)cc1)C2 [Example 68, 10-[(4-CHLOROPHENOXY)ACETYL]-N-[2-(4-HYDROXYPHENYL)ETHYL]-10,11-DIHYDRO-5H-PYRROLO[2,1-C][1,4]BENZODIAZEPINE-3-CARBOXAMIDE]
